Measurements taken from paper doi:10.1101/2022.12.28.522074v1, “Redesigning methionyl-tRNA synthetase for β-methionine activity with adaptive landscape flattening and experiments” (biorxiv, 2022).
Numbering of substitutions follows the chain as printed. Like-named read-outs stand apart in the source and are kept apart here.

Experiments:
Experiment in all cases: intrinsic fluorescence titration at equilibrium
Assay type in all cases: binding
[1] = target: T1, MetRS M547 (His-tagged monomeric E. coli MetRS) (Escherichia coli, UniProt P00959, I298C)
T1 construct: gene metG; M547: C-terminally truncated monomeric fragment (about 547 residues), His-tagged, pET15blpa, expressed in E. coli BLR(DE3)
T1 sequence (P00959 2-548 I298C): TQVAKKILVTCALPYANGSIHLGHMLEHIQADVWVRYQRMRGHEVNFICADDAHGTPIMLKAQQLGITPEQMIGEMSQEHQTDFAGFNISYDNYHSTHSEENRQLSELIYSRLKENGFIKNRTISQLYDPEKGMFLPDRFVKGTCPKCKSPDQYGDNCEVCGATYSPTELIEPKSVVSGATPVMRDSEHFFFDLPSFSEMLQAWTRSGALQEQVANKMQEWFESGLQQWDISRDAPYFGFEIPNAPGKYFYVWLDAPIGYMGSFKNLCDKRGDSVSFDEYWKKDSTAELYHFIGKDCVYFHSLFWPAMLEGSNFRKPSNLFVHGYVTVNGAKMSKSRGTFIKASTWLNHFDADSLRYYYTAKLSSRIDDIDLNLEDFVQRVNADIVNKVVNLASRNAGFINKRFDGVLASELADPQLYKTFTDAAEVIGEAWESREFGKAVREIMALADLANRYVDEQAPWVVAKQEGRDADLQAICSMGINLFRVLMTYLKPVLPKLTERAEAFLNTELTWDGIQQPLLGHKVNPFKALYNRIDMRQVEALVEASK
Excerpt: (§1) intrinsic fluorescence titration at equilibrium on MetRS M547 (His-tagged monomeric E. coli MetRS)

[2] = target: T2, MetRS M547 (His-tagged monomeric E. coli MetRS) (Escherichia coli, UniProt P00959, I298C/L14C)
T2 construct: gene metG; M547: C-terminally truncated monomeric fragment (about 547 residues), His-tagged, pET15blpa, expressed in E. coli BLR(DE3)
T2 sequence (P00959 2-548 L14C/I298C): T1 sequence (P00959 2-548 I298C) with L13C
Excerpt: as §1

[3] = target: T3, MetRS M547 (His-tagged monomeric E. coli MetRS) (Escherichia coli, UniProt P00959, I298C/L14M)
T3 construct: gene metG; M547: C-terminally truncated monomeric fragment (about 547 residues), His-tagged, pET15blpa, expressed in E. coli BLR(DE3)
T3 sequence (P00959 2-548 L14M/I298C): T1 sequence (P00959 2-548 I298C) with L13M
Excerpt: as §1

[4] = target: T4, MetRS M547 (His-tagged monomeric E. coli MetRS) (Escherichia coli, UniProt P00959, I298C/L14S)
T4 construct: gene metG; M547: C-terminally truncated monomeric fragment (about 547 residues), His-tagged, pET15blpa, expressed in E. coli BLR(DE3)
T4 sequence (P00959 2-548 L14S/I298C): T1 sequence (P00959 2-548 I298C) with L13S
Excerpt: as §1

[5] = target: T5, MetRS M547 (His-tagged monomeric E. coli MetRS) (Escherichia coli, UniProt P00959)
T5 construct: gene metG; M547: C-terminally truncated monomeric fragment (about 547 residues), His-tagged, pET15blpa, expressed in E. coli BLR(DE3)
T5 sequence (P00959 2-548): T1 sequence (P00959 2-548 I298C) with C297I
Excerpt: as §1

SMILES	Kd ([1]; read-out: Kd(β-Met)) [µM]	Kd ([2]; read-out: Kd(β-Met)) [µM]	Kd ([3]; read-out: Kd(β-Met)) [µM]	Kd ([4]; read-out: Kd(β-Met)) [µM]	Kd ([5]; read-out: Kd(β-Met)) [µM]	Kd ([1]; read-out: Kd(α-Met)) [µM]	Kd ([2]; read-out: Kd(α-Met)) [µM]	Kd ([3]; read-out: Kd(α-Met)) [µM]	Kd ([4]; read-out: Kd(α-Met)) [µM]	Kd ([5]; read-out: Kd(α-Met)) [µM]
CSCC[C@H](N)CC(=O)O [β-Met]	900	900	900	1000	1200					
CSCC[C@H](N)C(=O)O [α-Met]						190	170	160	170	50
